In patent US11053207B2, “Indoleamine-2,3-dioxygenase inhibitor and preparation method therefor” (SHANGHAI INSTITUTE OF ORGANIC CHEMISTRY, CHINESE ACADEMY OF …, priority 2014, dated 2021):

What was measured:
IDO enzyme = IDO enzyme (Homo sapiens (Human), UniProt P14902); experiment: IDO enzyme inhibitory activity; type: biochemical; conditions: OD321 nm, 60 min
Method: Firstly, the IDO gene was amplified by PCR, the PCR amplification products were recovered, and then the pET28a plasmid (purchased from Shanghai Baoman Biotechnology Co., Ltd.) and the IDO gel recovery products were digested with EcoR I and Xho I restriction endonucleases (37° C., digestion for 2 h), electrophorized and recovered. The recovered products were ligated overnight by a T4 ligase and then the ligation products were added to DH5α competent cells, placed on ice for 30 min, heat-shocked at 42° C. for 90 s, cultured on a shaker, and seeded to a plate. Monoclonies were picked, identified by PCR and then by sequencing.
The constructed BL21 containing the pET28a-IDO plasmid was cultured at 37° C. to OD600=0.6-0.8, and a final concentration of 7 μM of chlorine methemoglobin and 1 mM of IPTG (isopropyl-β-D-thiogalactoside) were added for induction at 28° C. for 4 h; after the induction, the cell was centrifuged at 6000 rpm at 4° C., the collected cells were washed once with 20 mM PBS (pH6.5), and centrifuged and collected again.
The collected cells were resuspended with a lysis solution (20 mM PBS pH 6.5), ultrasonically lysed (40% of power, lysis for 20 min, placed on ice), the lysed bacteria were centrifuged at 13000 rpm for 15 min, precipitate was discarded and the supernatant was maintained; the nickel column was equilibrated with the lysis solution (20 mM PBS pH 6.5) for 3 column volumes, and then the lysis supernatant was loaded onto the nickel column; after loading, four column volumes of a rinsing solution (20 mM PBS pH 6.5, 20 mM imidazole) were used for washing, and finally protein was eluted with eluent (20 mM PBS pH 6.5, 250 mM imidazole); the eluted protein solution was dialyzed for 4 h, and the dialysis solution was 20 mM PBS, pH 6.5. After the dialysis, the protein sample was concentrated, packed, flash frozen by liquid nitrogen, and stored at −80° C. for further use.
Firstly, the compound was subject to a 3-fold gradient dilution. 1 μL of each concentration was added to a 96-well plate; 50 μL of the IDO enzyme solution (final concentration 600 ng/100μL) was added: 25 μL of substrate 1 mixture solution was added, 25 μL of substrate 2 mixture solution was added to initiate the reaction. Finally, the plate was read at OD321 nm, 60 min.

Hela cells = experiment: Test for cell activity (Hela cells, interferon γ, kynurenine read at 480 nm); type: cell-based; conditions: human interferon γ 50 ng/mL, 48 h
Method: Hela cells (100 μL) were inoculated on a 96-well plate at an inoculation amount of 5×10^3 per well and grown overnight. The next day, after the compound was diluted, 1 μL was added to a 96-well plate and then 100 μL of medium containing human interferon y (final concentration of 50 ng/mL) was added to the 96-well plate to allow the final volume to be 200 μL. 48 h after incubating, 140 μL of supernatant in each well was transferred to a new 96-well plate. 10 μL of 6.1 N trichloroacetic acid was added to each well and mixed and incubated at 50° C. for 30 min, IDO catalyzed N-formyl canine urea to become canine urea. The reaction mixture was centrifuged at 2500 rpm for 10 minutes to remove the precipitate. 100 μL of supernatant in each well was transferred to a new 96-well plate and mixed with 100 μL of 2% dimethylaminobenzaldehyde acetic acid solution. After the canine urea was separated, the value was measured at 480 nm using a SPECTRAmax i3 reader.

Chain of IDO enzyme (P14902 whole entry): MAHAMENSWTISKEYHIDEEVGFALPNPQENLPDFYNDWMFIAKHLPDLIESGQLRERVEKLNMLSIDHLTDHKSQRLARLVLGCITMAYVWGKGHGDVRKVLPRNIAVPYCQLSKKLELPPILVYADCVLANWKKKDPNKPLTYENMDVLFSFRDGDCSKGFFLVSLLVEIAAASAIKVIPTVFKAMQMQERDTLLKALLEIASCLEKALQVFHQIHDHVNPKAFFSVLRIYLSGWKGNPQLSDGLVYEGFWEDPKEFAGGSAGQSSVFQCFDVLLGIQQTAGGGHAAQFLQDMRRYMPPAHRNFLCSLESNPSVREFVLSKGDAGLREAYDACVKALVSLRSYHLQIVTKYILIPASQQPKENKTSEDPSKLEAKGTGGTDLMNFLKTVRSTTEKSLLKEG

Compound	IC50 (IDO enzyme) [nM]	IC50 (Hela cells) [nM]
CS(=N)(=O)CCNc1nonc1/C(=N/O)Nc1ccc(F)c(Br)c1 (racemic) [compound 1, (±) (Z)—N-(3-bromo-4-fluorophenyl)-N′-hydroxy-4-((2-(thio-methylsulfoxideimine)ethyl)amino)-1,2,5-oxadiazole-3-carboxamidine]	22	40
CS(=N)(=O)CCCNc1nonc1/C(=N/O)Nc1ccc(F)c(Br)c1 (racemic) [compound 2, (±)(Z)—N-(3-bromo-4-fluorophenyl)-N′-hydroxy-4-((3-(thio-methylsulfoxideimine)propyl)amino)-1,2,5-oxadiazole-3-carboxamidine]	< 3000	< 100
CS(=N)(=O)CCCCNc1nonc1/C(=N/O)Nc1ccc(F)c(Br)c1 (racemic) [compound 3, (±)(Z)—N-(3-bromo-4-fluorophenyl)-N′-hydroxy-4-((4-(thio-methylsulfoxideimine)butyl)amino)-1,2,5-oxadiazole-3-carboxamidine]	74	8
CS(=N)(=O)CCCCNc1nonc1/C(=N/O)Nc1ccc(F)c(C(F)(F)F)c1 (racemic) [compound 4, (±)(Z)—N-(4-fluoro-3-(trifluoromethyl)phenyl)-N′-hydroxy-4-((4-(thio-methylsulfoxideimine)butyl)amino)-1,2,5-oxadiazole-3-carboxamidine]	< 19000	< 500
CS(=N)(=O)CCCCNc1nonc1/C(=N/O)Nc1cccc(C(F)(F)F)c1 (racemic) [compound 5, (±)(Z)—N′-hydroxy-4-((4-(thio-methylsulfoxideimine)butyl)amino)-N-(3-(trifluoromethyl)phenyl)-1,2,5-oxadiazole-3-carboxamidine]	< 3600	< 76
N=S(=O)(CCNc1nonc1/C(=N/O)Nc1ccc(F)c(Br)c1)c1ccccc1 (racemic) [compound 7, (±) (Z)—N-(3-bromo-4-fluorophenyl)-N′-hydroxy-4-((2-(thio-phenylsulfoxideimine)ethyl)amino)-1,2,5-oxadiazole-3-carboxamidine]	< 2600	< 260
CS(=N)(=O)CCCNc1nonc1/C(=N/O)Nc1cccc(S(F)(F)(F)(F)F)c1 (racemic) [compound 8]	< 14000	< 800
CS(=O)(CCCNc1nonc1/C(=N/O)Nc1ccc(F)c(Br)c1)=NC#N (racemic) [compound 9, (±) (Z)—N-(3-bromo-4-fluorophenyl)-N′-hydroxy-4-((3-(thio-methylsulfoxidecyanoamine)propyl)amino)-1,2,5-oxadiazole-3-carboxamidine]	35	4.7
CS(=O)(CCCNc1nonc1/C(=N/O)Nc1ccc(F)c(Cl)c1)=NC#N (racemic) [compound 10, (±) (Z)—N-(3-chloro-4-fluorophenyl)-N′-hydroxy-4-((3-(thio-methylsulfoxidecyanoamine)propyl)amino)-1,2,5-oxadiazole-3-carboxamidine]	< 5000	2.8
CS(=O)(CCCCNc1nonc1/C(=N/O)Nc1ccc(F)c(Br)c1)=NC#N (racemic) [compound 11, (±) (Z)—N-(3-bromo-4-fluorophenyl)-N′-hydroxy-4-((4-(thio-methylsulfoxidecyanoamine)butyl)amino)-1,2,5-oxadiazole-3-carboxamidine]	55	7.6
CS(=O)(CCCCNc1nonc1/C(=N/O)Nc1ccc(F)c(Cl)c1)=NC#N (racemic) [compound 12, (±)(Z)—N-(3-chloro-4-fluorophenyl)-N′-hydroxy-4-((4-(thio-methylsulfoxidecyanoamine)butyl)amino)-1,2,5-oxadiazole-3-carboxamidine]	< 18000	2.8
CCC(C)(C)C(=O)O/N=C(\Nc1ccc(F)c(Br)c1)c1nonc1NCCS(C)(=O)=NC#N (racemic) [compound 13, (±) (Z)—N-(3-bromo-4-fluorophenyl)-N′-hydroxy(thio-methylsulfoxidecyanoamine)ethyl)amino)-1,2,5-oxadiazole-3-(2,2-dimethyl) butyrate]	180	14
CC(C)C(=O)O/N=C(\Nc1ccc(F)c(Br)c1)c1nonc1NCCS(C)(=O)=NC#N (racemic) [compound 14, (±)(Z)—N-(3-Br-4-fluorophenyl)-N′-hydroxy-4-((2-(thio-methylsulfoxidecyanoamine)ethyl)amino)-1,2,5-oxadiazole-3-isobutyrate]	120	2.2
CC(C)(C)C(=O)O/N=C(\Nc1ccc(F)c(Br)c1)c1nonc1NCCS(C)(=O)=NC#N (racemic) [compound 15, (±)(Z)—N-(3-bromo-4-fluorophenyl)-N′-hydroxy-4-((2-(thio-methylsulfoxidecyanoamine)ethyl)amino)-1,2,5-oxadiazole-3-trimethyl acetate]	360	47
CS(=O)(CCNc1nonc1/C(=N/O)Nc1ccc(F)c(Br)c1)=NC#N (single isomer, unassigned) [compound 6A]	< 88	0.3
CS(=O)(CCNc1nonc1/C(=N/O)Nc1ccc(F)c(Br)c1)=NC#N (single isomer, unassigned) [compound 6B]	< 82	0.6
c1ccc(-c2cnc[nH]2)cc1 [5-phenyl-1-imidazole, reference compound]	–	> 50000
C[S@@](=N)(=O)CCNc1nonc1/C(=N/O)Nc1ccc(F)c(Br)c1 [compound 1A]	< 5600	< 70
C[S@](=N)(=O)CCNc1nonc1/C(=N/O)Nc1ccc(F)c(Br)c1 [compound 1B]	< 5200	< 80
